In paper PMC6905430 (Biochemistry, 2019):

Experiments:
wild type DXP synthase = wild type DXP synthase (Escherichia coli, UniProt P77488); assay: Anaerobic limited trypsinolysis in the presence of MAP; set-up: species or system E. coli; conditions: preincubation with MAP 65 μM, 45 min, 6 °C; trypsin 4.5 ng/μL; up to 150 min
H299A DXP synthase = H299A DXP synthase (Escherichia coli, UniProt P77488, H299A); assay type: biochemical, E. coli; conditions: H299A vs wild type
H49A DXP synthase = H49A DXP synthase (Escherichia coli, UniProt P77488, H49A); assay type: biochemical, E. coli
H299N DXP synthase = H299N DXP synthase (Escherichia coli, UniProt P77488, H299N); assay type: biochemical, E. coli
H49N DXP synthase = H49N DXP synthase (Escherichia coli, UniProt P77488, H49N); assay type: biochemical, E. coli; conditions: read-out: Km^app,pyruvate; anaerobic; pyruvate varied, D-GAP 500 μM; n = 3
[1] = read-out: Km^app,pyruvate, anaerobic, pyruvate varied, D-GAP 500 μM, n = 3

SMILES: COP(=O)(O)C(C)=O [MAP, methylacetylphosphonate]
- effect of MAP on trypsinolysis profile (wild type DXP synthase): K313 is protected from typsinolysis

SMILES: CC(=O)C(=O)O [pyruvate]
- decrease in kcat/Km^pyruvate relative to wild type DXP synthase (H299A DXP synthase): 846 fold
- decrease in kcat/Km^pyruvate compared to wild type DXP synthase (H49A DXP synthase; H49A vs wild type): 76 fold
- Km (H49A DXP synthase; [1]): 1070 µM
- decrease in kcat/Km^pyruvate relative to wild type DXP synthase (H299N DXP synthase; H299N vs wild type): 185 fold
- Km (H299N DXP synthase; [1]): 1080 µM
- Km (H49N DXP synthase): 1610 µM
